ChEMBL document CHEMBL5136977, “Discovery of 1-(5-(1H-benzo[d]imidazole-2-yl)-2,4-dimethyl-1H-pyrrol-3-yl)ethan-1-one derivatives as novel and potent bromodomain and extra-terminal (BET) inhibitors with anticancer efficacy” (Eur J Med Chem, 2022)
Active and inactive are the calls of the source. The calls are words filed in the database; no cut-off is given here.

Assays:
MV4-11 [1] = test: Antiproliferative activity against human MV4-11 cells assessed as cell growth inhibition incubated for 72 hrs by CellTiter-Glo assay; type: functional, cell-based; conditions: MV4-11, 72 h
[2] = Metabolic stability in human liver microsomes assessed as elimination half life incubated for 1 hr by LC-MS/MS analysis; type: ADME, Microsome; conditions: read-out: beta t1/2
[3] = Metabolic stability in monkey liver microsomes assessed as elimination half life incubated for 1 hr by LC-MS/MS analysis; type: ADME, Macaca mulatta, Microsome; conditions: rhesus monkey, read-out: beta t1/2
[4] = Metabolic stability in dog liver microsomes assessed as elimination half life incubated for 1 hr by LC-MS/MS analysis; type: ADME, Canis lupus familiaris, Microsome; conditions: read-out: beta t1/2
[5] = Metabolic stability in human liver microsomes assessed as intrinsic clearance incubated for 1 hr by LC-MS/MS analysis; type: ADME, Microsome; conditions: read-out: CLH
[6] = Metabolic stability in monkey liver microsomes assessed as intrinsic clearance incubated for 1 hr by LC-MS/MS analysis; type: ADME, Macaca mulatta, Microsome; conditions: rhesus monkey, read-out: CLH
[7] = Metabolic stability in dog liver microsomes assessed as intrinsic clearance incubated for 1 hr by LC-MS/MS analysis; type: ADME, Canis lupus familiaris, Microsome; conditions: read-out: CLH
[8] = Metabolic stability in rat liver microsomes assessed as intrinsic clearance incubated for 1 hr by LC-MS/MS analysis; type: ADME, Microsome; conditions: read-out: CLH
[9] = Metabolic stability in human liver assessed as intrinsic clearance incubated for 1 hr by LC-MS/MS analysis; type: ADME, tissue-based; conditions: read-out: CLH
[10] = Metabolic stability in monkey liver assessed as intrinsic clearance incubated for 1 hr by LC-MS/MS analysis; type: ADME, tissue-based, Macaca mulatta; conditions: rhesus monkey, read-out: CLH
[11] = Metabolic stability in dog liver assessed as intrinsic clearance incubated for 1 hr by LC-MS/MS analysis; type: ADME, tissue-based, Canis lupus familiaris; conditions: read-out: CLH
[12] = Metabolic stability in rat liver assessed as intrinsic clearance incubated for 1 hr by LC-MS/MS analysis; type: ADME, tissue-based; conditions: read-out: CLH
[13] = AUC (0 to infinity) in Sprague-Dawley rat at 1 mg/kg, iv by LC-MS/MS analysis; type: ADME, organism-based; parameters: time infinity, dose 1 mg/kg, route iv; conditions: in vivo
[14] = C0 in Sprague-Dawley rat at 1 mg/kg, iv by LC-MS/MS analysis; type: ADME, organism-based; conditions: in vivo
[15] = Half life in Sprague-Dawley rat at 1 mg/kg, iv by LC-MS/MS analysis; type: ADME, organism-based; conditions: in vivo
[16] = Volume of distribution in Sprague-Dawley rat at 1 mg/kg, iv by LC-MS/MS analysis; type: ADME, organism-based; conditions: in vivo
[17] = Tmax in Sprague-Dawley rat at 10 mg/kg, po by LC-MS/MS analysis; type: ADME, organism-based; conditions: in vivo
[18] = Oral bioavailability in Sprague-Dawley rat at 10 mg/kg by LC-MS/MS analysis; type: ADME, organism-based; conditions: in vivo
HL-60(TB) = test: Antiproliferative activity against human HL-60(TB) cells assessed as cell growth inhibition measured after 72 hrs by CellTiter-Glo assay; type: functional
NCI-H522 = test: Antiproliferative activity against human NCI-H522 cells assessed as cell growth inhibition measured after 72 hrs by CellTiter-Glo assay; type: functional
HCT-15 = test: Antiproliferative activity against human HCT-15 cells assessed as cell growth inhibition measured after 72 hrs by CellTiter-Glo assay; type: functional
SNB-75 = test: Antiproliferative activity against human SNB-75 cells assessed as cell growth inhibition measured after 72 hrs by CellTiter-Glo assay; type: functional
UACC-62 = test: Antiproliferative activity against human UACC-62 cells assessed as cell growth inhibition measured after 72 hrs by CellTiter-Glo assay; type: functional
CAKI-1 = test: Antiproliferative activity against human CAKI-1 cells assessed as cell growth inhibition measured after 72 hrs by CellTiter-Glo assay; type: functional
MDA-MB-468 = test: Antiproliferative activity against human MDA-MB-468 cells assessed as cell growth inhibition measured after 72 hrs by CellTiter-Glo assay; type: functional
MV4-11 [19] = test: Induction of cell cycle arrest in human MV4-11 cells assessed as accumulation of cells at G0/G1 phase at 100 nM incubated for 48 hrs by propidium iodide staining based flow cytometric analysis (reference value: 65.71%); type: functional
MV4-11 [20] = test: Induction of cell cycle arrest in human MV4-11 cells assessed as accumulation of cells at G0/G1 phase at 200 nM incubated for 48 hrs by propidium iodide staining based flow cytometric analysis (reference value: 65.71%); type: functional
MV4-11 [21] = test: Induction of cell cycle arrest in human MV4-11 cells assessed as accumulation of cells at S phase at 200 nM incubated for 48 hrs by propidium iodide staining based flow cytometric analysis (reference value: 26.29%); type: functional
[22] = Induction of cell apoptosis in human MV4-11 cells assessed as early apoptotic cells at 200 nM incubated for 48 hrs by Annexin V-FITC/Propidium iodide staining based flow cytometry analysis (reference value: 1.42%); type: functional
[23] = Induction of cell apoptosis in human MV4-11 cells assessed as late apoptotic cells at 200 nM incubated for 48 hrs by Annexin V-FITC/Propidium iodide staining based flow cytometry analysis (reference value: 1.99%); type: functional
[24] = Induction of cell apoptosis in human MV4-11 cells assessed as […] cells at 200 nM incubated for 48 hrs by Annexin V-FITC/Propidium iodide staining based flow cytometry analysis (reference value: 96.6%); type: functional
[25] = Induction of cell apoptosis in human MV4-11 cells assessed as early apoptotic cells at 500 nM incubated for 48 hrs by Annexin V-FITC/Propidium iodide staining based flow cytometry analysis (reference value: 1.42%); type: functional
[26] = Induction of cell apoptosis in human MV4-11 cells assessed as late apoptotic cells at 500 nM incubated for 48 hrs by Annexin V-FITC/Propidium iodide staining based flow cytometry analysis (reference value: 1.99%); type: functional
[27] = Induction of cell apoptosis in human MV4-11 cells assessed as […] cells at 500 nM incubated for 48 hrs by Annexin V-FITC/Propidium iodide staining based flow cytometry analysis (reference value: 96.6%); type: functional
[28] = Induction of cell apoptosis in human MV4-11 cells assessed as […] cells at 1000 nM incubated for 48 hrs by Annexin V-FITC/Propidium iodide staining based flow cytometry analysis (reference value: 96.6%); type: functional
MV4-11 [29] = test: Induction of cell cycle arrest in human MV4-11 cells assessed as downregulation of c-myc expression incubated for 24 hrs by Western blotting analysis; type: functional, cell-based; conditions: dose 62.5-250 nM, DDE = dose-dependent effect
MV4-11 [30] = test: Induction of cell apoptosis in human MV4-11 cells assessed as upregulation of cleaved PARP level at 62.5 to 250 nM incubated for 24 hrs by Western blotting analysis; type: functional, cell-based; conditions: dose 62.5-250 nM
MV4-11 [31] = test: Antitumor activity against human MV4-11 cells xenografted BALB/c nude mouse model assessed as tumor growth inhibition at 40 mg/kg, po QD administered for 28 consecutive days; type: functional; conditions: MV4-11, 672 h, time 28 day, read-out: TGI
MV4-11 [32] = test: Antitumor activity against human MV4-11 cells xenografted BALB/c nude mouse model assessed as tumor growth inhibition at 80 mg/kg, po QD administered for 28 consecutive days; type: functional; conditions: MV4-11, 672 h, time 28 day, read-out: TGI
[33] = Toxicity in BALB/c nude mouse xenografted with human MV4-11 cells assessed as effect on body weight at 20 to 80 mg/kg, po QD administered for 28 consecutive days; type: organism-based; conditions: in vivo, 672 h, dose 20-80 mg/kg, time 28 day

`CC(=O)c1c(C)[nH]c(-c2nc3cc(N4CCN(C)CC4)ccc3[nH]2)c1-c1ccccc1` gave an IC50 (MV4-11 [1]) of 15 nM, a half-life [2] of 3.32 h and a half-life [3] of 1.42 h. For the same molecule, the half-life [4] was 0.25 h, the microsomal CLint [5] was 7.03 µL/min/mg and the microsomal CLint [6] was 16.5 µL/min/mg. The microsomal CLint [7] was 92.2 µL/min/mg, the microsomal CLint [8] was 20.9 µL/min/mg and the CLint scaled [9] was 6.64 mL/min/kg. The CLint scaled [10] was 23.8 mL/min/kg, the CLint scaled [11] was 133 mL/min/kg and the CLint scaled [12] was 37.6 mL/min/kg. The AUC(0-inf) [13] was 725 ng·h/mL, the C0 [14] was 548 ng/mL and the half-life [15] was 1.86 h. For the same molecule, the Vd [16] was 3.3 L/kg, the Tmax [17] was 3.33 h and the bioavailability [18] was 111%. The GI50 (HL-60(TB)) was 261 nM, the GI50 (NCI-H522) was 258 nM and the GI50 (HCT-15) was 261 nM. For the same molecule, the GI50 (SNB-75) was 41.6 nM, the GI50 (UACC-62) was 274 nM and the GI50 (CAKI-1) was 211 nM. It also gave a GI50 (MDA-MB-468) of 361 nM, an Activity (MV4-11 [19]) of 75.41% and an Activity (MV4-11 [20]) of 87.4%. The Activity (MV4-11 [21]) was 9.68%, the Activity [22] was 5.31% and the Activity [23] was 4.78%. It also gave an Activity [24] of 89.7%, an Activity [25] of 16.9% and an Activity [26] of 76.4%. For the same molecule, the Activity [27] was 6.31%, the Activity [28] was 48.2% and the Activity (MV4-11 [29]) was “Dde”. The Activity (MV4-11 [30]) was “Active”, the inhibition in vivo at 40 mg/kg (MV4-11 [31]) was 103% and the inhibition in vivo at 80 mg/kg (MV4-11 [32]) was 34.8%. The Activity [33] was “Non-Toxic”.
